Measurements reported in ChEMBL document CHEMBL1128080, “Structural Factors affecting the kinetics of O,N-acyl transfer in potential O-peptide prodrugs” (Bioorg Med Chem Lett, 1995).

Experiment: Half-life for the conversion of compound to the corresponding N-peptide under pseudo physiological conditions (0.04 M phosphate, pH 7.4 and 37 degree C)
Format: ADME
Conditions: phosphate buffer

Row | half-life | Compound
1 | 0.0667 h | CCC(NC(=O)C(N)C(OC(=O)C(NC(=O)OCc1ccccc1)C(C)C)C(C)C)C(=O)NCCc1ccc(OC)c(OC)c1 (stereo not drawn)
2 | 6.17 h | CNC1C(=O)NCCCCN(C)C(C(C)C)C(=O)OC1C(C)C (stereo not drawn)
3 | 1.58 h | CCC(NC(=O)C(NC)C(OC(=O)C(NC(=O)OCc1ccccc1)C(C)C)C(C)C)C(=O)NCCc1ccc(OC)c(OC)c1 (stereo not drawn)
